Experimental data from PMC5244392, “Interspecies cathelicidin comparison reveals divergence in antimicrobial activity, TLR modulation, chemokine induction and regulation of phagocytosis” (Scientific Reports, 2017).

Tests used:
RAW264.7 cells = experiment: Cytotoxicity (WST-1 mitochondrial activity, PI staining); assay type: cell-based, murine; settings: 24 h, peptide 0.08-20 μM; WST-1 and PI staining
Method: WST-1 reagent was obtained from Roche (Basel, Switzerland). RAW264.7 cells were incubated with cathelicidins for 24 h, after which the supernatant was removed and replaced with 10% WST-1 reagent in culture medium. After 20 minutes, absorbance was measured at 450 nm with a FLUOstar Omega microplate reader (BMG Labtech GmbH, Ortenberg, Germany) and was corrected for absorbance at 630 nm. Non-treated control cells were defined as 100% mitochondrial activity.
In addition, cells were detached after peptide exposure and stained with propidium iodide (PI) (BD bioscience, San Jose, CA, USA). Percentages of PI positive (i.e. dead) cells were determined with flow cytometry (BD FACSCanto II flow cytometer (BD Biosciences)) and analyzed with FlowJo software (Ashland, OR, USA). […]
Supplementary Figure 3: Cytotoxicity of cathelicidins on RAW264.7 cells
(A) RAW264.7 cells were incubated for 24 hours with diﬀerent cathelicidins (0.08 µM, 0.31 µM, 1.25 µM, 5 µM, and 20 µM), after which they were incubated with WST-1 reagent for 20 minutes to measure the mitochondrial activity. No peptide control was set to 100% mitochondrial activity. Dotted line represents 80% mitochondrial activity. Results are presented as average +/- SEM (N = 4).
(B) RAW264.7 cells were incubated with diﬀerent cathelicidins (0.31 µM, 1.25 µM, 5 µM, and 20 µM). Cells were stained for PI to detect dead cells. […]

S. aureus = experiment: MBC by plating wells without visible growth, S. aureus; assay type: cell-based, Staphylococcus aureus; settings: S. aureus in DMEM; results not shown
Method: In order to compare our Cmax with MBC values, wells without visible bacterial growth were plated out on TSA plates and incubated o/n at 37 °C to determine the presence of viable bacteria.
The antimicrobial capacities were tested under the same conditions and expressed as growth delay instead of the more classical MIC/MBC determination using broth dilution assays. […] The fact that DMEM medium makes S. aureus susceptible to PR-39 is surprising since this peptide is thought to require active uptake by the SbmA transporter, only present in Gram – bacteria. The results obtained in this work, might indicate that the peptide possibly switches to a different mechanism of action with initially a bacteriostatic effect, but more thorough studies are required to elucidate the details of these initial observations.

E. coli O78 = experiment: Sytox green membrane leakage assay; assay type: cell-based, Escherichia coli; settings: 30 min at 37 °C, MHB or DMEM + FCS, peptide 0.31-20 μM; N = 3
Method: Peptide dilutions and bacteria suspensions were prepared as described above for testing the antimicrobial activity in the Bioscreen C analyzer. Peptide dilutions and bacteria were mixed 1:1 and incubated for 30 minutes at 37 °C. Next, bacteria were washed once with PBS and transferred to black 96-wells assay plates (Corning, OH, USA). Bacteria were incubated with […] sytox green (Life technologies) (λex 504 nm and λem 523 nm) for 5 minutes after which fluorescence was measured using a FLUOstar Omega microplate reader (BMG Labtech GmbH, Ortenberg, Germany).
The capacity of peptides to induce membrane leakage was tested using the permeability marker sytox green. […] For MRSA, fluorescence levels were generally very low even at >Cmax levels, hampering a good comparison between growth delay and permeabilization for this strain.
Supplementary Figure 2: Bacterial membrane leakage
E. Coli O78 and MRSA (1x10^6 CFU/ml) were grown in MHB or DMEM+FCS for 30 minutes at 37°C in the presence of diﬀerent concentrations of cathelicidins (0.31 µM, 0.63 µM, 1.25 µM, 2.5 µM, 5 µM, 10 µM, and 20 µM), after which the cells were stained with sytox green to measure membrane leakage. E. Coli in MHB, dark green line; E. Coli in DMEM, light green line; MRSA in MHB, dark blue line; MRSA in DMEM, light blue line. Results are presented as average +/- SEM (N = 3).
Peptide concentration (µ M) […]

Substance | Cytotoxicity to RAW264.7 cells, in words (RAW264.7 cells) | Fold higher MBC than Cmax (S. aureus) | Membrane permeability (sytox green fluorescence), in words (E. coli O78)
Ac-GRFRRLRKKTRKRLKKIGKVLKWIPPIVGSIPLGCG [PMAP-36, porcine α-helical cathelicidin, N-acetylated, 36 residues, charge +13] | some cytotoxicity, but only at the highest concentration | – | –
RRRPRPPYLPRPRPPPFFPPRLPPRIPPGFPPRFPPRFP [PR-39, porcine proline-rich cathelicidin forming a polyproline helix, 39 residues, charge +10] | – | 16 fold | minimal permeability
